Assay results: PubChem BioAssay AID2060501 (Molecular Pharmacology Branch, DTP, NCI, 2025)

Test system: 282377-053-R-J1-PDC complex spheroids, viability
Assay: Anticancer human tumor 282377-053-R-J1-PDC patient-derived colon adenocarcinoma cell line growth inhibition [GQUAD]
Settings: for IC50: curve of first compound; for viability, T/C: stronger effect = lower value
Summary of the method: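 Tumor cells were grown as complex spheroids with HUVEC endothelial cells and mesenchymal stem cells as stroma. G-quadruplex stabilizers were combined with targeted agents over half-log dilutions from near the clinical Cmax, or from 10 microM.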

[1] = second compound 0.0316 µM, first compound 0.0316 µM
[2] = second compound 0.0316 µM, first compound 0.316 µM
[3] = second compound 0.1 µM, first compound 0.0316 µM
[4] = second compound 0.1 µM, first compound 0.316 µM
[5] = second compound 0.316 µM, first compound 0.0316 µM
[6] = second compound 0.316 µM, first compound 0.316 µM
[7] = second compound 1 µM, first compound 0.0316 µM
[8] = second compound 1 µM, first compound 0.316 µM
[9] = second compound 3.16 µM, first compound 0.0316 µM
[10] = second compound 3.16 µM, first compound 0.316 µM
[11] = second compound 10 µM, first compound 0.0316 µM
[12] = second compound 10 µM, first compound 0.316 µM
[13] = second compound 0.0316 µM, first compound 0.1 µM
[14] = second compound 0.0316 µM, first compound 1 µM
[15] = second compound 0.0316 µM, first compound 3.16 µM
[16] = second compound 0.0316 µM, first compound 10 µM
[17] = second compound 0.1 µM, first compound 0.1 µM
[18] = second compound 0.1 µM, first compound 1 µM
[19] = second compound 0.1 µM, first compound 3.16 µM
[20] = second compound 0.1 µM, first compound 10 µM
[21] = second compound 0.316 µM, first compound 0.1 µM
[22] = second compound 0.316 µM, first compound 1 µM
[23] = second compound 0.316 µM, first compound 3.16 µM
[24] = second compound 0.316 µM, first compound 10 µM
[25] = second compound 1 µM, first compound 0.1 µM
[26] = second compound 1 µM, first compound 1 µM
[27] = second compound 1 µM, first compound 3.16 µM
[28] = second compound 1 µM, first compound 10 µM
[29] = second compound 3.16 µM, first compound 0.1 µM
[30] = second compound 3.16 µM, first compound 1 µM
[31] = second compound 3.16 µM, first compound 3.16 µM
[32] = second compound 3.16 µM, first compound 10 µM
[33] = second compound 10 µM, first compound 0.1 µM
[34] = second compound 10 µM, first compound 1 µM
[35] = second compound 10 µM, first compound 3.16 µM
[36] = second compound 10 µM, first compound 10 µM
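Further: spheroids exposed to compounds for 7 days before readout.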
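Wherever viability, T/C is given: percent of vehicle DMSO control viability with 100% = untreated-like growth.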

With CC[C@@]1(O)C(=O)OCc2c1cc1n(c2=O)Cc2cc3c(CN(C)C)c(O)ccc3nc2-1 + CN(C)c1ccc(Nc2c3ccc(NC(=O)CCN4CCCC4)cc3nc3cc(NC(=O)CCN4CCCC4)ccc23)cc1 the IC50 (second compound 0.0316 µM) was greater than 0.316 µM, the IC50 (second compound 0.1 µM) was greater than 0.316 µM and the IC50 (second compound 0.316 µM) was greater than 0.316 µM. The IC50 (second compound 1 µM) was greater than 0.316 µM, the IC50 (second compound 3.16 µM) was greater than 0.316 µM and the IC50 (second compound 10 µM) was greater than 0.316 µM. It also gave a viability, T/C (second compound 0.0316 µM, first compound 0.000999 µM) of 108%, a viability, T/C (second compound 0.0316 µM, first compound 0.00316 µM) of 102% and a viability, T/C (second compound 0.0316 µM, first compound 0.00999 µM) of 103%. The viability, T/C [1] was 118%, the viability, T/C (second compound 0.0316 µM, first compound 0.0999 µM) was 104% and the viability, T/C [2] was 91%. The viability, T/C (second compound 0.1 µM, first compound 0.000999 µM) was 92.8%, the viability, T/C (second compound 0.1 µM, first compound 0.00316 µM) was 103% and the viability, T/C (second compound 0.1 µM, first compound 0.00999 µM) was 95.2%. It also gave a viability, T/C [3] of 107%, a viability, T/C (second compound 0.1 µM, first compound 0.0999 µM) of 115% and a viability, T/C [4] of 90.5%. The viability, T/C (second compound 0.316 µM, first compound 0.000999 µM) was 105%, the viability, T/C (second compound 0.316 µM, first compound 0.00316 µM) was 113% and the viability, T/C (second compound 0.316 µM, first compound 0.00999 µM) was 88.5%. It also gave a viability, T/C [5] of 88.3%, a viability, T/C (second compound 0.316 µM, first compound 0.0999 µM) of 104% and a viability, T/C [6] of 101%. The viability, T/C (second compound 1 µM, first compound 0.000999 µM) was 99.3%, the viability, T/C (second compound 1 µM, first compound 0.00316 µM) was 101% and the viability, T/C (second compound 1 µM, first compound 0.00999 µM) was 93%. For the same molecule, the viability, T/C [7] was 89.7%, the viability, T/C (second compound 1 µM, first compound 0.0999 µM) was 108% and the viability, T/C [8] was 87%. It also gave a viability, T/C (second compound 3.16 µM, first compound 0.000999 µM) of 90.6%, a viability, T/C (second compound 3.16 µM, first compound 0.00316 µM) of 87.3% and a viability, T/C (second compound 3.16 µM, first compound 0.00999 µM) of 97.8%. For the same molecule, the viability, T/C [9] was 86.2%, the viability, T/C (second compound 3.16 µM, first compound 0.0999 µM) was 102% and the viability, T/C [10] was 82.2%. It also gave a viability, T/C (second compound 10 µM, first compound 0.000999 µM) of 88.5%, a viability, T/C (second compound 10 µM, first compound 0.00316 µM) of 85.7% and a viability, T/C (second compound 10 µM, first compound 0.00999 µM) of 94.7%. It also gave a viability, T/C [11] of 79.7%, a viability, T/C (second compound 10 µM, first compound 0.0999 µM) of 77.3% and a viability, T/C [12] of 97%.
O=c1[nH]cc(F)c(=O)[nH]1 + Cc1cnc(CNC(=O)c2c(=O)c3ccc(N4CCCN(C)CC4)nc3n3c2sc2ccccc23)cn1 gave an IC50 (second compound 0.0316 µM) greater than 10 µM, an IC50 (second compound 0.1 µM) greater than 10 µM and an IC50 (second compound 0.316 µM) greater than 10 µM. It also gave an IC50 (second compound 1 µM) greater than 10 µM, an IC50 (second compound 3.16 µM) greater than 10 µM and an IC50 (second compound 10 µM) of less than 0.0316 µM. The viability, T/C [1] was 98.6%, the viability, T/C [13] was 92.1% and the viability, T/C [2] was 114%. For the same molecule, the viability, T/C [14] was 82.9%, the viability, T/C [15] was 77% and the viability, T/C [16] was 65.4%. For the same molecule, the viability, T/C [3] was 94.6%, the viability, T/C [17] was 97.7% and the viability, T/C [4] was 107%. The viability, T/C [18] was 76.2%, the viability, T/C [19] was 76.1% and the viability, T/C [20] was 65%. For the same molecule, the viability, T/C [5] was 78.3%, the viability, T/C [21] was 82.6% and the viability, T/C [6] was 81.4%. The viability, T/C [22] was 76.3%, the viability, T/C [23] was 68.5% and the viability, T/C [24] was 62.8%. The viability, T/C [7] was 51.3%, the viability, T/C [25] was 51.8% and the viability, T/C [8] was 62.5%. The viability, T/C [26] was 56.8%, the viability, T/C [27] was 55.6% and the viability, T/C [28] was 48.3%. It also gave a viability, T/C [9] of 54.8%, a viability, T/C [29] of 50.1% and a viability, T/C [10] of 49%. The viability, T/C [30] was 44.2%, the viability, T/C [31] was 63.6% and the viability, T/C [32] was 53.9%. It also gave a viability, T/C [11] of 46.4%, a viability, T/C [33] of 45.7% and a viability, T/C [12] of 54.5%. It also gave a viability, T/C [34] of 52.5%, a viability, T/C [35] of 54.5% and a viability, T/C [36] of 34.9%.
C=CC(=O)N1CCN(c2nc(=O)n(-c3c(C)ccnc3C(C)C)c3nc(-c4c(O)cccc4F)c(F)cc23)C(C)C1 (stereo unspecified) + CN(C)c1ccc(Nc2c3ccc(NC(=O)CCN4CCCC4)cc3nc3cc(NC(=O)CCN4CCCC4)ccc23)cc1 gave an IC50 (second compound 0.0316 µM) greater than 10 µM, an IC50 (second compound 0.1 µM) greater than 10 µM and an IC50 (second compound 0.316 µM) greater than 10 µM. The IC50 (second compound 1 µM) was greater than 10 µM, the IC50 (second compound 3.16 µM) was greater than 10 µM and the IC50 (second compound 10 µM) was greater than 10 µM. The viability, T/C [1] was 105%, the viability, T/C [13] was 104% and the viability, T/C [2] was 99.3%. For the same molecule, the viability, T/C [14] was 99%, the viability, T/C [15] was 87% and the viability, T/C [16] was 79%. The viability, T/C [3] was 107%, the viability, T/C [17] was 94.5% and the viability, T/C [4] was 110%. The viability, T/C [18] was 96%, the viability, T/C [19] was 107% and the viability, T/C [20] was 66.6%. For the same molecule, the viability, T/C [5] was 115%, the viability, T/C [21] was 97.6% and the viability, T/C [6] was 103%. The viability, T/C [22] was 101%, the viability, T/C [23] was 103% and the viability, T/C [24] was 72.4%. It also gave a viability, T/C [7] of 112%, a viability, T/C [25] of 99.5% and a viability, T/C [8] of 98.5%. The viability, T/C [26] was 95.9%, the viability, T/C [27] was 90.5% and the viability, T/C [28] was 92.8%. For the same molecule, the viability, T/C [9] was 105%, the viability, T/C [29] was 90.2% and the viability, T/C [10] was 100%. The viability, T/C [30] was 84.9%, the viability, T/C [31] was 79.9% and the viability, T/C [32] was 89.9%. For the same molecule, the viability, T/C [11] was 111%, the viability, T/C [33] was 93.3% and the viability, T/C [12] was 94.5%. The viability, T/C [34] was 79.8%, the viability, T/C [35] was 88.3% and the viability, T/C [36] was 86.5%.
